Data taken from patent US11090285B2, “Treatment of circadian rhythm disorders” (Vanda Pharmaceuticals Inc., priority 2013, dated 2021).

Key:
[1] = test system: blind individuals with Non-24; assay: RESET Study, randomized withdrawal, maintenance of effect; format: in vivo, human
Procedure: Patients were treated with tasimelteon for at least twelve weeks during an open-label run-in phase during the SET Study. Patients who responded to tasimelteon treatment during the run-in phase were then randomized to receive either placebo or tasimelteon (20 mg/day) for 2 months.
The primary endpoint of the RESET Study was the maintenance of effect as measured by entrainment of the melatonin (aMT6s) rhythm.
The RESET study also assessed a number of secondary endpoints including maintenance of entrainment of the cortisol rhythm and a range of sleep and wake parameters including LQ-nTST (total nighttime sleep in the worst 25% of nights), UQ-dTSD (total daytime sleep duration in the worst 25% of days) and MoST (midpoint of sleep timing from both nighttime and daytime sleep).

[2] = test system: CYP1A2 and CYP3A4; assay: Isoenzymes involved in tasimelteon metabolism; format: in vitro ADME
[3] = Tasimelteon exposure with ketoconazole (CYP3A4 inhibitor); format: in vivo, human; conditions: single 20 mg dose on fifth day of ketoconazole 400 mg per day vs tasimelteon alone
Procedure: Therefore, in cases where an individual is co-administered a CYP3A4 inhibitor, the dose of tasimelteon administered may be less than if administered alone or in the absence of a CYP3A4 inhibitor.
For example, a pharmaceutical composition providing a dosage equivalent to a daily dosage between about 5 mg and about 15 mg of tasimelteon may be co-administered with a […] inhibitor.

[4] = Solubility and pH of saturated solution; format: physicochemical
Procedure: (§1) Tasimelteon is a white to off-white powder with a melting point of about 78° C. […] Tasimelteon has 2-4 times greater affinity for MT2R relative to MT1R.

[5] = test system: Non-24 patients; assay: Phase advance of circadian rhythm on initiation of treatment; format: in vivo, human; conditions: upon initiation of treatment
Procedure: For example, treatment of a patient who has a target bedtime of 10:00 p.m. and a target wake time of 7:00 a.m., treatment initiation can be on a day when urinary aMT6s acrophase is predicted to occur at 3:30 am. However, treatment with tasimelteon can conveniently be initiated on a day on which melatonin acrophase, e.g., using calculated urinary aMT6s acrophase, is predicted to be between about 5.5 hours before target wake time and 2.5 hours after target wake time. Without intending to be bound to a particular theory, this flexibility is apparently owing to the unusually marked effects of such active ingredient on circadian rhythm upon initiation of treatment (e.g., phase advance by as much as about 5 hours on initial treatment).

[6] = target: T1, MT2R (Homo sapiens, UniProt P49286); assay: Melatonin receptor affinity, MT2R; format: binding
T1 sequence (P49286 1-362): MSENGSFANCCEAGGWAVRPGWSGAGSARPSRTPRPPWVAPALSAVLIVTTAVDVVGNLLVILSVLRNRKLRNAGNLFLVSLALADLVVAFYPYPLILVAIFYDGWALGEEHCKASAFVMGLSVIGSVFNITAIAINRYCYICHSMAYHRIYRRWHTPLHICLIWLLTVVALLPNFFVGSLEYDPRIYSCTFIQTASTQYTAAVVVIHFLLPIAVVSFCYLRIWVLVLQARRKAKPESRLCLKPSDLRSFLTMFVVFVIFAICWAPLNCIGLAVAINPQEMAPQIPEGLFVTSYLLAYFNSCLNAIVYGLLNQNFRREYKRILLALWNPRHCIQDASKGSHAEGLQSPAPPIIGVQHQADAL
Procedure: as §1

[7] = test system: patients with Non-24; assay: SET Study, Phase III randomized, double-masked, placebo-controlled; format: in vivo, human
Procedure: Specifically, patients were orally administered 20 mg tasimelteon per day for at least 12 weeks prior to re-estimating tau. Patients were selected for randomization or open label based on baseline tau estimates. Drug was administered at about 1 hour prior to target sleep time, as determined by patients based on a 9 hour nighttime sleep period.
The SET study was an 84 patient randomized, double-masked, placebo-controlled study in patients with Non-24. The primary endpoints for this study were Entrainment of the melatonin (aMT6s) rhythm to the 24-hour clock and Clinical Response as measured by Entrainment plus a score of greater than or equal to 3 on the following N24CRS:
The SET study also assessed a number of secondary endpoints including Entrainment of cortisol rhythm and a broad range of clinical sleep and wake parameters. These parameters included improvement in the total nighttime sleep in the worst 25% of nights (LQ-nTST), decrease in the total daytime sleep duration in the worst 25% of days (UQ-dTSD) and midpoint of sleep timing (MoST) which is derived from a combination of the sleep reported for both nighttime and daytime. CGI-C is a seven-point rating scale of global functioning with lower scores indicating larger improvements.

[8] = test system: Non-24 patients; assay: Entrainment by peak aMT6s level and beta blocker use (clinical studies); format: in vivo, human
Procedure: Results of clinical study also show a strong correlation between endogenous melatonin and efficacy of tasimelteon in entraining patients to a 24 hour circadian rhythm. The following table (Table 3A) compares the peak aMT6s levels in the 24 entrained and 23 non-entrained patients.
Data from these studies currently available also indicate that beta blocker therapy is […] related to efficacy of tasimelteon, i.e., patients receiving beta blocker therapy were less likely to become entrained than patients who were not.

[9] = RESET, higher number indicates improvement
[10] = 20 mg/day, SET secondary endpoint
[11] = 20 mg/day, sensitivity analysis

**Q.** What does the source list for `CCC(=O)NC[C@@H]1C[C@H]1c1cccc2c1CCO2` (relative stereo) [Tasimelteon, trans-N-[[2-(2,3-dihydrobenzofuran-4-yl)cycloprop-1yl]methyl]propanamide]?
**A.** maintenance of entrainment (cortisol) ([1]; 20 mg/day, RESET): 80.0%; Maintenance of entrainment (aMT6s) ([1]; 20 mg/day, RESET primary endpoint): 90.0%; LQ-nTST (LS mean minutes) [1, 9]: -6.6 min; MoST (LS mean minutes) [1, 9]: 19.8 min; UQ-dTSD (LS mean minutes) ([1]; RESET, lower number indicates improvement): -9.6 min; LQ-nTST (LS mean minutes), Difference ([1]; tasimelteon vs placebo): 67.2 min; MoST (LS mean minutes), Difference ([1]; tasimelteon vs placebo): 36.0 min; UQ-dTSD (LS mean minutes), Difference ([1]; tasimelteon vs placebo): -59.4 min; maintenance of entrainment (cortisol), Difference ([1]; tasimelteon vs placebo): 60.0%; isoenzymes also involved in metabolism [2]: CYP1A1, CYP2D6, CYP2C19, and CYP2C9; major isoenzymes involved in the metabolism [2]: CYP1A2 and CYP3A4; increase of tasimelteon exposure [3]: approximately 54%; effect of pH on aqueous solubility [4]: practically unaffected by pH; native pH of a saturated solution in water [4]: 8.5; solubility in organic solvents ([4]; 95% ethanol, methanol, acetonitrile, ethyl acetate, isopropanol, PEG-300 and PEG-400): very soluble or freely soluble; solubility in water ([4]; water): only slightly soluble; phase advance on initial treatment [5]: ≤ 5 h; greater affinity for MT2R relative to MT1R [6]: 2-4 times; Entrainment (aMT6s) ([7]; 20 mg/day oral, SET primary endpoint): 20.0%; LQ-nTST (LS mean minutes) ([7]; 20 mg/day, SET): 57.0 min; MoST (LS mean minutes) ([7]; 20 mg/day, SET): 34.8 min; Clinical Response (Entrainment + N24CRS >=3) ([7]; 20 mg/day, SET primary endpoint): 23.7%; Entrainment (cortisol) [7, 10]: 17.5%; N24CRS (LS mean minutes) [7, 10]: 1.77 min; UQ-dTSD (LS mean minutes) ([7]; 20 mg/day, SET, smaller numbers indicate improvement): -46.2 min; Clinical Response (Entrainment + N24CRS >=2) [7, 11]: 28.9%; N24CRS >=2 [7, 11]: 57.9%; N24CRS >=3 [7, 11]: 28.9%; CGI-C (LS mean minutes) ([7]; 20 mg/day, smaller numbers indicate improvement): 2.6 min; safety and tolerability ([7]; SET study): safe and well tolerated; percentage of entrained patients ([7]; on drug at least two circadian cycles, not on beta blockers, tau<24.7 hours): approximately 85%; LQ-nTST and UQ-dTSD >=90 min ([7]; only subjects with significant sleep and nap problems at baseline): 23.8%; LQ-nTST and UQ-dTSD >=45 min ([7]; sensitivity analysis): 31.6%; Entrained patients ([8]; Peak aMT6s <1500 ng/hr): 12 (41%); Non-entrained patients ([8]; Peak aMT6s <1500 ng/hr): 17 (59%); Entrained patients ([8]; Peak aMT6s <2000 ng/hr): 13 (38%); Non-entrained patients ([8]; Peak aMT6s <2000 ng/hr): 21 (62%); Entrained patients ([8]; Peak aMT6s ≥1500 ng/hr): 12 (67%); Non-entrained patients ([8]; Peak aMT6s ≥1500 ng/hr): 6 (33%); Entrained patients ([8]; Peak aMT6s ≥2000 ng/hr): 11 (85%); Non-entrained patients ([8]; Peak aMT6s ≥2000 ng/hr): 2 (15%); Entrained patients ([8]; Peak aMT6s: All (47 patients)): 24 (51%); Non-entrained patients ([8]; Peak aMT6s: All (47 patients)): 23 (49%); Entrained patients ([8]; Taking Beta Blocker: No): 24; Non-entrained patients ([8]; Taking Beta Blocker: No): 19; Entrained patients ([8]; Taking Beta Blocker: Yes): 0; Non-entrained patients ([8]; Taking Beta Blocker: Yes): 4; patients who responded to therapy ([8]; baseline aMT6s excretion rate >2000 ng/hr): Eleven of thirteen
